For this assay, the system named is E. coli thiM TPP riboswitch (ITC construct) (RNA, riboswitch) GGCAGUACUCGGGGUGCCCUUCUGCGUGAAGGCUGAGAAAUACCCGUAUCACCUGAUCUGGAUAAUGCCAGCGUAGGGAAGUGCUG
In words: ITC. The following applies: 1 mM MgCl2, 200 mM potassium acetate; 100 mM HEPES-Na pH 8.0, 25 °C.

The structures appear in SMILES notation.

`Cc1ncc(C[n+]2csc(CCO)c2C)c(N)n1` showed a KT of 11 µM.

`Cc1ncc(C[n+]2csc(CCOP(=O)(O)CP(=O)(O)O)c2C)c(N)n1`: the KL was determined as 19 nM.
